Drawing on patent US20250388575A1, “HETEROBIFUNCTIONAL COMPOUNDS AND METHODS OF TREATING DISEASE” (Halda Therapeutics OpCo, Inc., priority 2022, published 2025), this text covers GI50 for 21 compounds.

The test system of assay [1] is T47D cells. Briefly: Cellular growth inhibition assay for T47D cells, CellTiter-Glo. It counts as cell-based, human. The note with it: 72 hours treatment, CellTiter-Glo 2.0. Here is the method: T47D cells were purchased from American Type Cell Culture (ATCC Cat #HTB-133) and then seeded on poly-D-lysine coated, black clear-bottom 384-well plates at 3000/well in 25 μL Dulbecco's Modified Eagle Medium (DMEM) supplemented with 10% w/w Fetal bovine serum (FBS), 0.2 units/mL recombinant human insulin (Gibco Cat #12585014), and 1% w/w Pen-Strep. Pen-Strep is a commercially available mixture of penicillin G and streptomycin, which is used in mammalian cell culture media to prevent bacterial contamination. Dulbecco's Modified Eagle Medium (DMEM) supplemented with 10% w/w fetal bovine serum (FBS), 0.2 units/mL recombinant human insulin, and 1% w/w Pen-Strep is herein referred to as Treatment Medium. Following seeding of cells in the plates, the plates were spun at 300×g for 30 seconds, then equilibrated to room temperature for 30 minutes, and then deposited in a humidified tissue culture incubator maintained at 37° C. with 5% CO2.
At 24 hours after seeding of the cells, dilutions of test compound were prepared in DMSO and dissolved in Treatment Medium, to achieve a final DMSO concentration of 0.5% w/w, thereby providing the Test Compound Solution. A 25 μL aliquot of the Test Compound Solution was added to cells in the well plates. An equal volume of a solution containing DMSO and Treatment Medium was used as a negative control. Following treatment of cells with Test Compound Solution or said equal volume of a solution containing DMSO and Treatment Medium, the plates were spun at 300×g for 30 seconds, and then left in an incubator for 72 hours.
At the end of the treatment duration, cell viability was quantified with CellTiter-Glo 2.0 reagent (Promega Cat #G9243). For this purpose, plates were equilibrated to room temperature for 30 minutes, and then 25 μL of CellTiter-Glo 2.0 reagent was added to cells in the plate wells. Plates were then agitated on a shaker for two minutes at 500 rpm and subsequently incubated at room temperature for 10 minutes. Following incubation, the plates were spun at 3000×g for 30 seconds, then sealed with an optical adhesive cover, and luminescence readings were measured with an EnVision Plate Reader (Perkin Elmer).
Data was normalized using zero luminescence for baseline. A four-parameter non-linear regression curve fit was applied to dose-response data in GraphPad Prism data analysis software to determine the half-maximal growth inhibitory concentration (GI50) for each test compound.
(In ATP-based viability assays light output follows the ATP content of the culture.)

Assay [2] concerns T-Rex 293 cell line SC3 cells having increased expression of androgen receptor protein. Briefly: Cellular growth inhibition, T-Rex 293 SC3 cells with increased androgen receptor expression (doxycycline), CellTiter-Glo. It counts as cell-based. To be noted: T-Rex 293 SC3 cells with increased androgen receptor expression (exposed to 10 ng/mL doxycycline), 72 hours, CellTiter-Glo; read-out: GI50. The procedure, abridged:
(§1)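 SC3, a T-Rex 293 clone with doxycycline-inducible wild-type androgen receptor, was seeded in phenol red-free DMEM with 10% charcoal-dextran FBS, with or without 10 ng/mL doxycycline. Compound added at 24 h (0.5% DMSO) for 72 h at 37° C. CellTiter-Glo 2.0 luminescence; GI50 from four-parameter fit.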

In assay [3] the test system is VCaP cells. Briefly: Cellular growth inhibition assay for VCaP cells, CellTiter-Glo. It counts as cell-based, human. The note with it: VCaP cells, 72 hours, CellTiter-Glo, read-out: GI50. The procedure, abridged:
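GI50 values come from four-parameter curve fits of luminescence data normalized to a zero baseline. Compound, in medium with 0.5% DMSO, was added one day after plating and left for 72 h before CellTiter-Glo 2.0 addition.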

The subject of assay [4] is T-Rex 293 cell line SC3 cells lacking increased expression of androgen receptor protein. Description: Cellular growth inhibition, T-Rex 293 SC3 cells lacking increased androgen receptor expression (no doxycycline), CellTiter-Glo. It counts as cell-based. The note with it: T-Rex 293 SC3 cells lacking increased androgen receptor expression (not exposed to doxycycline), 72 hours, CellTiter-Glo; read-out: GI50. Put shortly: as §1

The structures appear in SMILES notation. Like-named read-outs stand apart in the source and are kept apart here.

Turning to `CCS(=O)(=O)c1ccc(Oc2ccc(CCC3CCN(c4ccc(C(=O)N[C@H]5CC[C@H](Oc6ccc(C#N)c(Cl)c6)CC5)nn4)CC3)c(OC)c2)c(-c2cn(C)c(=O)c3[nH]ccc23)c1` [I-82], the GI50 in assay [1], in assay [2], in assay [3] and in assay [4] was less than 500 nM throughout.

Turning to `CCS(=O)(=O)c1ccc(Oc2ccc(CCC3CCN(c4ccc(C(=O)N[C@H]5CC[C@H](Oc6ccc(C#N)c(Cl)c6)CC5)nn4)CC3)c(Cl)c2)c(-c2cn(C)c(=O)c3[nH]ccc23)c1` [I-84], the GI50 – broadly, the concentration at which growth is held to half of that of the control – in assay [1] was less than 500 nM; in assay [2], less than 500 nM; in assay [3], less than 500 nM; in assay [4], greater than 3000 nM.

Take `CCS(=O)(=O)c1ccc(Oc2ccc(CCC3CCN(c4ccc(C(=O)N[C@H]5CC[C@H](Oc6ccc(C#N)c(Cl)c6)CC5)nn4)CC3)c(C(F)(F)F)c2)c(-c2cn(C)c(=O)c3[nH]ccc23)c1` [I-85]: the GI50 in assay [1], in assay [2], in assay [3] and in assay [4] was less than 500 nM each time.

Take `CCS(=O)(=O)c1ccc(Oc2ccc(CC3CC4(CCN(c5ccc(C(=O)N[C@H]6CC[C@H](Oc7ccc(C#N)c(Cl)c7)CC6)nn5)CC4)C3)cc2)c(-c2cn(C)c(=O)c3[nH]ccc23)c1` [I-86]: the GI50 in assay [1] (Homo sapiens), in assay [2], in assay [3] (Homo sapiens) and in assay [4] was less than 500 nM in each case.

As for `C=CC1CN(c2ccc(C(=O)N[C@H]3CC[C@H](Oc4ccc(C#N)c(Cl)c4)CC3)nn2)CC1c1ccc(Oc2ccc(S(=O)(=O)CC)cc2-c2cn(C)c(=O)c3[nH]ccc23)cc1` (stereo partly drawn) [I-87], the 50% growth inhibitory concentration (GI50) in assay [1] is less than 500 nM; in assay [2] it was less than 500 nM; in assay [3], less than 500 nM; in assay [4], 500 to 1500 nM.

On to `CCS(=O)(=O)c1ccc(Oc2ccc(C(C)(C)N3CC4(CN(c5ccc(C(=O)N[C@H]6CC[C@H](Oc7ccc(C#N)c(Cl)c7)CC6)nn5)C4)C3)cc2)c(-c2cn(C)c(=O)c3[nH]ccc23)c1` [I-88], for which the GI50 in assay [1] (Homo sapiens), in assay [2], in assay [3] (Homo sapiens) and in assay [4] was less than 500 nM each time.

Take `CCC1CN(c2ccc(C(=O)N[C@H]3CC[C@H](Oc4ccc(C#N)c(Cl)c4)CC3)nn2)CC1c1ccc(Oc2ccc(S(=O)(=O)CC)cc2-c2cn(C)c(=O)c3[nH]ccc23)cc1` (stereo partly drawn) [I-89]: the GI50 in assay [1] is less than 500 nM; in assay [2] it was less than 500 nM; in assay [3], less than 500 nM; in assay [4], greater than 3000 nM.

Regarding `CCS(=O)(=O)c1ccc(Oc2ccc(N3CC(C4CCN(c5ccc(C(=O)N[C@H]6CC[C@H](Oc7ccc(C#N)c(Cl)c7)CC6)nn5)CC4)C3)cc2)c(-c2cn(C)c(=O)c3[nH]ccc23)c1` [I-91], the GI50 in assay [1], in assay [2], in assay [3] and in assay [4] was less than 500 nM each time.

Take `CN(CCCc1ccc(Oc2ccc(C(C)(C)O)cc2-c2cn(C)c(=O)c3[nH]ccc23)cc1)c1ccc(C(=O)N[C@H]2CC[C@H](Oc3ccc(C#N)c(Cl)c3)CC2)nn1` [I-105]: the concentration for 50% growth inhibition (GI50) was 1500 to 3000 nM in assay [1], less than 500 nM in assay [2], less than 500 nM in assay [3] and less than 500 nM in assay [4].

Regarding `Cn1cc(-c2cc(C(C)(C)O)ccc2Oc2ccc(CCC3CCN(c4ccc(C(=O)N[C@H]5CC[C@H](Oc6ccc(C#N)c(Cl)c6)CC5)nn4)CC3)c(F)c2F)c2cc[nH]c2c1=O` [I-112], the GI50 in assay [1] is 500 to 1500 nM; in assay [2], less than 500 nM; in assay [3], 500 to 1500 nM; in assay [4] it was greater than 3000 nM.

Regarding `Cn1cc(-c2cc(C(C)(C)O)ccc2Oc2ccc(CCC3CCN(c4ccc(C(=O)N[C@H]5CC[C@H](Oc6ccc(C#N)c(Cl)c6)CC5)nn4)CC3)c(F)c2)c2cc[nH]c2c1=O` [I-113], the GI50 is 500 to 1500 nM in assay [1], less than 500 nM in assay [2], less than 500 nM in assay [3] and greater than 3000 nM in assay [4].

With `Cn1cc(-c2cc(C(C)(C)O)ccc2Oc2cc(F)c(CCC3CCN(c4ccc(C(=O)N[C@H]5CC[C@H](Oc6ccc(C#N)c(Cl)c6)CC5)nn4)CC3)c(F)c2)c2cc[nH]c2c1=O` [I-114], the GI50 in assay [1] was 1500 to 3000 nM; in assay [2], less than 500 nM; in assay [3], less than 500 nM; in assay [4] it was greater than 3000 nM.

Turning to `Cn1cc(-c2cc(C(C)(C)O)ccc2Oc2c(F)cc(CCC3CCN(c4ccc(C(=O)N[C@H]5CC[C@H](Oc6ccc(C#N)c(Cl)c6)CC5)nn4)CC3)cc2F)c2cc[nH]c2c1=O` [I-115], the GI50 in assay [1] was less than 500 nM; in assay [2], less than 500 nM; in assay [3], less than 500 nM; in assay [4], greater than 3000 nM.

Take `Cn1cc(-c2cc(C(C)(C)O)ccc2Oc2cc(F)c(CCC3CCN(c4ccc(C(=O)N[C@H]5CC[C@H](Oc6ccc(C#N)c(Cl)c6)CC5)nn4)CC3)cc2F)c2cc[nH]c2c1=O` [I-116]: the GI50 in assay [1] is less than 500 nM; in assay [2], less than 500 nM; in assay [3] it was less than 500 nM; in assay [4], 500 to 1500 nM.

`Cn1cc(-c2cc(C(C)(C)O)ccc2Oc2ccc(CN3CC4(C3)CN(c3ccc(C(=O)N[C@H]5CC[C@H](Oc6ccc(C#N)c(Cl)c6)CC5)nn3)C4)cc2)c2cc[nH]c2c1=O` [I-123]: the GI50 in assay [1] (Homo sapiens) was less than 500 nM; in assay [2], less than 500 nM; in assay [3] (Homo sapiens) it was less than 500 nM; in assay [4] it was 500 to 1500 nM.

As to `Cn1cc(-c2cc(C(C)(C)O)ccc2Oc2ccc(CCC3CC4(C3)CN(c3ccc(C(=O)N[C@H]5CC[C@H](Oc6ccc(C#N)c(Cl)c6)CC5)nn3)C4)cc2)c2cc[nH]c2c1=O` [I-126], the GI50 in assay [1], in assay [2], in assay [3] and in assay [4] was less than 500 nM in each case.

Take `Cn1cc(-c2cc(C(C)(C)O)ccc2Oc2ccc(CCCC3CN(c4ccc(C(=O)N[C@H]5CC[C@H](Oc6ccc(C#N)c(Cl)c6)CC5)nn4)C3)cc2)c2cc[nH]c2c1=O` [I-127]: the GI50 was less than 500 nM in assay [1], less than 500 nM in assay [2], less than 500 nM in assay [3] and 500 to 1500 nM in assay [4].

Consider `Cn1cc(-c2cc(C(C)(C)O)ccc2Oc2ccc(CCCC3C4CN(c5ccc(C(=O)N[C@H]6CC[C@H](Oc7ccc(C#N)c(Cl)c7)CC6)nn5)CC34)cc2)c2cc[nH]c2c1=O` (stereo partly drawn) [I-128], for which the GI50 in assay [1], in assay [2], in assay [3] and in assay [4] was less than 500 nM each time.

Regarding `Cn1cc(-c2cc(C(C)(C)O)ccc2Oc2ccc(CCC3CN(c4ccc(C(=O)N[C@H]5CC[C@H](Oc6ccc(C#N)c(Cl)c6)CC5)nn4)C3)cc2)c2cc[nH]c2c1=O` [I-129], the GI50 in assay [1], in assay [2], in assay [3] and in assay [4] was less than 500 nM throughout.

Turning to `Cn1cc(-c2cc(C(C)(C)O)ccc2Oc2ccc(CC3CC4(CCN(c5ccc(C(=O)N[C@H]6CC[C@H](Oc7ccc(C#N)c(Cl)c7)CC6)nn5)CC4)C3)cc2)c2cc[nH]c2c1=O` [I-130], the GI50 in assay [1] (Homo sapiens), in assay [2], in assay [3] (Homo sapiens) and in assay [4] was less than 500 nM each time.

`Cn1cc(-c2cc(C(C)(C)O)ccc2Oc2ccc(CC3CN(c4ccc(C(=O)N[C@H]5CC[C@H](Oc6ccc(C#N)c(Cl)c6)CC5)nn4)C3)cc2)c2cc[nH]c2c1=O` [I-131]: the GI50 in assay [1] (Homo sapiens), in assay [2], in assay [3] (Homo sapiens) and in assay [4] was less than 500 nM in each case.
